≈ marks a conversion by molar mass, not a printed value. Like-named read-outs stand apart in the source and are kept apart here.
What was measured:
[1] = tested on: panel of Gram-positive bacteria (VSSA, MRSA, VanA and VanB VRE); test: Antimicrobial assay, MIC across the bacterial panel; type: cell-based, S. aureus, E. faecalis, E. faecium; settings: Staphylococcus aureus, read-out: MICs across the bacterial panel, vancomycin-sensitive and vancomycin-resistant strains
Experimental: (§1) Assays were carried out following the methods of Clinical and Laboratory Standards Institute; Methods for Dilution Antimicrobial Susceptibility Tests for Bacteria That Grow Aerobically; Approved Standard, […].; CLSI document M07-A8; Clinical and Laboratory Standards Institute: Wayne, Pa., 2009.
(§2) This diluted bacterial stock solution was then inoculated into a well of a V-shaped 96-well glass coated microtiter plate, supplemented with serial diluted aliquots of the antibiotic solution DMSO (4 μL), to achieve a total assay volume of 0.1 mL. The plate was then incubated at 37° C. for 18 hours, after which minimal inhibitory concentrations (MICs) were determined by monitoring the cell growth (observed as a pellet) in the wells. The lowest concentration of antibiotic (in μg/mL) capable of eliminating the cell growth in the wells is reported as the MIC.

[2] = tested on: vancomycin-sensitive Staphylococcus aureus (VSSA strain ATCC 25923); test: Antimicrobial assay, MIC, vancomycin-sensitive S. aureus; type: cell-based; settings: ATCC 25923; for MIC: Staphylococcus aureus
Experimental: as §1, §2

[3] = tested on: methicillin and oxacillin-resistant Staphylococcus aureus subsp. aureus (MRSA strain ATCC 43300); test: Antimicrobial assay, MIC, MRSA; type: cell-based; settings: for MIC: Staphylococcus aureus
Experimental: as §1, §2

[4] = tested on: vancomycin-resistant Enterococcus faecalis (VanB VRE, strain ATCC 51299); test: microbe, parasite or virus in culture; type: cell-based; settings: for MIC: Enterococcus faecalis
Experimental: as §1, §2

[5] = tested on: vancomycin-resistant Enterococcus faecalis (VanA VRE, BM4166); test: microbe, parasite or virus in culture; type: cell-based; settings: for MIC: Enterococcus faecalis, VRE
Experimental: as §1, §2

[6] = tested on: Enterococcus faecium (VanA VRE, ATCC BAA-2317); test: Antimicrobial assay, MIC, VanA E. faecium; type: cell-based; settings: for MIC: Enterococcus faecium
Experimental: as §1, §2

[7] = ATCC25923, read-out: MIC, sensitive S. aureus, serum concentration 10%, 10%
[8] = ATCC25923, read-out: MIC, sensitive S. aureus, serum concentration 100%, 100%
[9] = ATCC25923, 25%, read-out: MIC, sensitive S. aureus, serum concentration 25%
[10] = ATCC25923, read-out: MIC, sensitive S. aureus
[11] = read-out: MIC, MRSA S. aureus, serum concentration 10%
[12] = read-out: MIC, MRSA S. aureus, serum concentration 25%
[13] = read-out: MIC, MRSA S. aureus, serum concentration 100%
[14] = read-out: MIC, Van B E. faecalis, serum concentration 10%
[15] = read-out: MIC, Van B E. faecalis, serum concentration 25%
[16] = read-out: MIC, Van B E. faecalis, serum concentration 100%
[17] = read-out: MIC, VanB E. faecalis
[18] = read-out: MIC, Van A E. faecalis, serum concentration 10%
[19] = read-out: MIC, Van A E. faecalis, serum concentration 25%
[20] = read-out: MIC, Van A E. faecalis, serum concentration 100%
[21] = read-out: MIC, VanA E. faecalis
[22] = read-out: MIC, Van A E. faecium, serum concentration 10%
[23] = read-out: MIC, Van A E. faecium, serum concentration 25%
[24] = read-out: MIC, Van A E. faecium, serum concentration 100%

Compound | MIC [1] [µg/mL] | MIC [2, 7] [µg/mL] | MIC [2, 8] [µg/mL] | MIC [2, 9] [µg/mL] | MIC [2, 10] [µg/mL] | MIC ([3]; read-out: MIC, MRSA S. aureus) [µg/mL] | MIC [3, 11] [µg/mL] | MIC [3, 12] [µg/mL] | MIC [3, 13] [µg/mL] | MIC [4, 14] [µg/mL] | MIC [4, 15] [µg/mL] | MIC [4, 16] [µg/mL] | MIC [5, 18] [µg/mL] | MIC [5, 19] [µg/mL] | MIC [5, 20] [µg/mL] | MIC [5, 21] [µg/mL] | MIC [6, 22] [µg/mL] | MIC [6, 23] [µg/mL] | MIC [6, 24] [µg/mL] | MIC ([6]; read-out: MIC, VanA E. faecium) [µg/mL] | also measured
CN[C@H](CC(C)C)C(=O)N[C@H]1C(=O)N[C@@H](CC(N)=O)C(=O)N[C@H]2C(=S)NC3C(=O)N[C@H](C(=O)N[C@H](C(=O)O)c4cc(O)cc(O)c4-c4cc3ccc4O)[C@H](O)c3ccc(c(Cl)c3)Oc3cc2cc(c3OC2OC(CO)C(O)[C@H](O)[C@@H]2O[C@H]2CC(C)(N)[C@H](O)[C@H](C)O2)Oc2ccc(cc2Cl)[C@H]1O (stereo partly drawn) [Compound 2, [Ψ[C(═S)NH]Tpg^4]vancomycin] | > 32 | > 32 | > 32 | > 32 | > 32 | > 32 | > 32 | > 32 | > 32 | > 32 | > 32 | > 32 | > 32 | > 32 | > 32 | > 32 | > 32 | > 32 | > 32 | > 32 | MIC [4, 17]: > 32 µg/mL
CN[C@H](CC(C)C)C(=O)N[C@H]1C(=O)N[C@@H](CC(N)=O)C(=O)N[C@H]2C(=N)NC3C(=O)N[C@H](C(=O)N[C@H](C(=O)O)c4cc(O)cc(O)c4-c4cc3ccc4O)[C@H](O)c3ccc(c(Cl)c3)Oc3cc2cc(c3OC2OC(CO)C(O)[C@H](O)[C@@H]2O[C@H]2CC(C)(N)[C@H](O)[C@H](C)O2)Oc2ccc(cc2Cl)[C@H]1O (stereo partly drawn) [Compound 3, [Ψ[C(═NH)NH]Tpg^4]vancomycin] | – | – | – | – | – | – | – | – | – | – | – | – | 0.5 (≈ 0.345 µM) | 8 (≈ 5.52 µM) | > 32 | 0.5 (≈ 0.345 µM) | 0.5 (≈ 0.345 µM) | 4 (≈ 2.76 µM) | > 32 | 0.5 (≈ 0.345 µM) | –
CN[C@H](CC(C)C)C(=O)N[C@H]1C(=O)N[C@@H](CC(N)=O)C(=O)N[C@H]2C(=S)NC3C(=O)N[C@H](C(=O)N[C@H](C(=O)O)c4cc(O)cc(O)c4-c4cc3ccc4O)[C@H](O)c3ccc(c(Cl)c3)Oc3cc2cc(c3OC2OC(CO)C(O)[C@H](O)[C@@H]2O[C@H]2CC(C)(NCc3ccc(-c4ccc(Cl)cc4)cc3)[C@H](O)[C@H](C)O2)Oc2ccc(cc2Cl)[C@H]1O (stereo partly drawn) [Compound 5, N-4-(4′-chlorobiphenyl)-methyl [Ψ[C(═S)NH]Tpg^4]vancomycin] | 2 to 4 (≈ 1.2 to 2.4 µM) | 2 (≈ 1.2 µM) | 4 (≈ 2.4 µM) | 2 (≈ 1.2 µM) | 2 (≈ 1.2 µM) | 2 (≈ 1.2 µM) | 2 (≈ 1.2 µM) | 4 (≈ 2.4 µM) | 4 (≈ 2.4 µM) | 2 (≈ 1.2 µM) | 2 (≈ 1.2 µM) | 8 (≈ 4.8 µM) | 4 (≈ 2.4 µM) | 4 (≈ 2.4 µM) | 8 (≈ 4.8 µM) | 4 (≈ 2.4 µM) | 4 (≈ 2.4 µM) | 4 (≈ 2.4 µM) | 8 (≈ 4.8 µM) | 4 (≈ 2.4 µM) | MIC [4, 17]: 2 µg/mL (≈ 1.2 µM)
CN[C@H](CC(C)C)C(=O)N[C@H]1C(=O)N[C@@H](CC(N)=O)C(=O)N[C@H]2CNC3C(=O)N[C@H](C(=O)N[C@H](C(=O)O)c4cc(O)cc(O)c4-c4cc3ccc4O)[C@H](O)c3ccc(c(Cl)c3)Oc3cc2cc(c3OC2OC(CO)C(O)[C@H](O)[C@@H]2O[C@H]2CC(C)(N)[C@H](O)[C@H](C)O2)Oc2ccc(cc2Cl)[C@H]1O (stereo partly drawn) [Compound 16, [Ψ[CH2NH]Tpg^4]vancomycin] | – | – | – | – | – | – | – | – | – | – | – | – | 31 (≈ 21.6 µM) | 62 (≈ 43.2 µM) | 125 (≈ 87.1 µM) | 31 (≈ 21.6 µM) | 31 (≈ 21.6 µM) | 62 (≈ 43.2 µM) | 125 (≈ 87.1 µM) | 31 (≈ 21.6 µM) | –
CN[C@H](CC(C)C)C(=O)N[C@H]1C(=O)N[C@@H](CC(N)=O)C(=O)N[C@H]2C(=O)NC3C(=O)N[C@H](C(=O)N[C@H](CO)c4cc(O)cc(O)c4-c4cc3ccc4O)[C@H](O)c3ccc(c(Cl)c3)Oc3cc2cc(c3OC2OC(CO)C(O)[C@H](O)[C@@H]2O[C@H]2CC(C)(N)[C@H](O)[C@H](C)O2)Oc2ccc(cc2Cl)[C@H]1O (stereo partly drawn) [Compound 23, hydroxymethylvancomycin, reference compound] | – | – | – | – | – | – | – | – | – | – | – | – | – | – | – | – | – | – | – | – | MIC, sensitive S. aureus [2]: 0.5 µg/mL (≈ 0.348 µM); MIC, MRSA S. aureus ([3]; ATCC 43300): 0.5 µg/mL (≈ 0.348 µM); MIC, VanB E. faecalis ([4]; ATCC 51299): 8 µg/mL (≈ 5.57 µM); MIC, VanA E. faecalis ([5]; BM 4166): 250 µg/mL (≈ 174 µM); MIC, VanA E. faecium ([6]; ATCC BAA-2317): 250 µg/mL (≈ 174 µM)
